# Assay results: patent US20250339549A1, “METHODS FOR THE DETECTION AND TREATMENT OF NON-SMALL-CELL LUNG CANCER” (Board of Regents, The University of Texas System, priority 2022, published 2025)
# How the values were obtained:
# ALPP [1] = test: ALPP expression in cancer cell lines after drug treatment (immunoblot, immunofluorescence, flow cytometry, qPCR, surface proteomics); format: cell-based, human; settings: for ALPP induction by other EGFR inhibitors (immunoblots): EGFR-mutant H1650 and HCC827; for ALPP expression after drug washout and re-treatment: 48 hours treatment, 48 hours without inhibitor; for ALPP and percentage of ALPP+ cells over time: one to four days, 30 nM; for fold increase in ALPP expression: EGFR TKI treatment (FIG. 7D, FIG. 15B: 30 nM, 48 hours); for ALPP expression after PI3K/AKT or MEK/ERK inhibition: HCC827 and H1650 (FIG. 8D: HCC827 and PC9)
# Text: ALPP and ALPPL2 expression analysis in whole cell extracts and in the surfaceome compartment was done by mass spectrometry as previously described^19-23. Each dataset was normalized to the total number of spectral counts for each compartment^24.
# Images were acquired in z-series on a spinning-disk confocal system.
# Probe for ALPP was purchased from Thermo Fisher Scientific (Hs03046558_s1).
# HCC827 and PC9 cells [2] = test: Flow cytometry-based cell cycle analysis; set-up: species or system human; settings: 30 nM
# FoxO3a = FoxO3a phosphorylation, localisation and transcription in LUAD cells
# HCC827 and PC9 cells [3] = settings: 100 nM
# ALPP [4] = settings: cited from earlier work
# [5] = tested on: AKT (Ser473) and ERK (T202/Y204) phosphorylation; test: Immunoblots for AKT and ERK phosphorylation in LUAD cells; format: cell-based, human; settings: H2291 and H1650; EGF 10 or 20 ng/mL, gefitinib 0.5 or 1 μM
# ALPP [6] = test: IHC for ALPP in tumor and normal tissues of gefitinib-treated H1650 tumor-bearing mice; format: in vivo, BALB/c nude mice; settings: 50 mg/kg daily for 10 days
# Protocol: IHC staining was performed as previously described 25.
# ALPP promoter = test: ChIP-qPCR for FoxO3a binding to the promoter region of ALPP gene; format: cell-based, human; settings: H1650 and HCC827; 1 μM, 6 hours
# Text: Subsequently, the DNA-protein complexes were enriched with Protein A/G magnetic Beads and DNA was recovered by the DNA Clean-up column.
# ALPP [7] = settings: PC9 xenograft tumors; GSE161584; cited from earlier work
# [8] = EGFR mut H1650, 24- and 48-hour treatment
compound,measurement,setting,value
C=CC(=O)Nc1cc(Nc2nccc(-c3cn(C)c4ccccc34)n2)c(OC)cc1N(C)CCN(C)C [osimertinib],ALPP induction by other EGFR inhibitors (immunoblots),ALPP [1],yielded similar results
same,ALPP expression (immunoblots),"ALPP [1]; HCC827 and PC9, 30 nM (FIG. 8K)",increased ALPP expression
same,ALPP expression after drug washout and re-treatment,ALPP [1]; HCC827 and PC9,markedly reduced in the absence of EGFR inhibitors and was restored with the addition of inhibitors
same,ALPP and percentage of ALPP+ cells over time,ALPP [1]; HCC827 and PC9,gradual and sustained increase of ALPP and percentage of ALPP^+ cells
same,fold increase in ALPP expression,ALPP [1]; HCC827 cells,~60 fold
same,fold increase in ALPP expression,ALPP [1]; PC9 cells,~110 fold
same,cell cycle arrest in G0/G1,HCC827 and PC9 cells [2],statistically significantly increased cell cycle arrest in G0/G1
same,phosphorylation of EGFR and FoxO3a,"FoxO3a; HCC827 and PC9, 30 nM",suppressed the phosphorylation of EGFR and FoxO3a
same,emergence of drug-resistant clones under continuous TKI treatment,HCC827 and PC9 cells [3],led to the emergence of drug-resistant clones
same,Ingenuity Pathway Analysis of upstream regulators,"ALPP [4]; 4 LUAD cell lines, RNAseq data GSE193258","concordant activation of FoxO3a, but not FoxO1"
same,"ALPP gene expression, single cell transcriptomics","ALPP [4]; PC9, 0, 3, 7, 14 days, GSE150949",progressive increase in ALPP gene expression
same,LUAD cells expressing ALPP,"ALPP [4]; PC9, day 14, GSE150949",~50%
"EGF: epidermal growth factor, the endogenous ligand of EGFR",ALPP expression (immunoblots),ALPP [1]; [8],reduced ALPP expression
same,ALPP expression in EGF-containing growth medium,"ALPP [1]; H1650 and H2291, EGF 10 or 20 ng/mL, 24 and 48 hours",drastically reduced
same,AKT and ERK phosphorylation,[5],"induced AKT phosphorylation at serine 473 (Ser473), and ERK phosphorylation at threonine 202 (T202) and tyrosine 204 (Y204) residues"
CCn1cc(C(=O)O)c(=O)c2c(N)c(F)c(NC3CCCCC3)cc21 [AS1842856],ALPP protein expression after FoxO inhibition,"ALPP [1]; LUAD cells (HCC827 and PC9), 48 hours",diminished ALPP protein expression
same,effect on gefitinib-mediated ALPP upregulation,"ALPP [1]; LUAD cells (HCC827 and PC9), with gefitinib, 48 hours",blunted gefitinib-mediated ALPP upregulation
Nc1cc(C(F)(F)F)c(-c2cc(N3CCOCC3)nc(N3CCOCC3)n2)cn1 [NVP-BKM120],ALPP expression after PI3K/AKT or MEK/ERK inhibition,"ALPP [1]; 100 nM, 48 hours",drastic induction of ALPP expression
Cc1cc(C(=O)NOCCO)c(Nc2ccc(I)cc2F)n(C)c1=O [AZD8330],ALPP expression after PI3K/AKT or MEK/ERK inhibition,"ALPP [1]; 100 nM, 48 hours",drastic induction of ALPP expression
O=C(Nc1ccc2[nH]nc(-c3ccncc3)c2c1)[C@@H]1CCN(CC(=O)N2CCN(c3ccc(-c4ncccn4)cc3)CC2)C1 [SCH772984],ALPP expression after PI3K/AKT or MEK/ERK inhibition,"ALPP [1]; 100 nM, 48 hours",drastic induction of ALPP expression
COc1cc2ncnc(Nc3ccc(F)c(Cl)c3)c2cc1OCCCN1CCOCC1 [gefitinib],tumoral ALPP surface expression (IHC),ALPP [6],pronounced increases in tumoral ALPP surface expression
same,ALPP protein staining in other tissues (IHC),ALPP [6]; normal tissues,negative or showed no appreciable difference compared to the vehicle control
same,ALPP expression (immunoblots),ALPP [1]; [8],ALPP upregulation
same,"surface ALPP expression (mass spectrometry, immunofluorescence)","ALPP [1]; EGFR mutant H1650 and PC9, 24- and 48-hour treatment",pronounced upregulation of surface ALPP expression
same,ALPP expression (immunoblots),"ALPP [1]; EGFR wild-type, KRAS mutant H2291 and H1838","increased ALPP expression, although to a lesser extent"
same,surface ALPP by flow cytometry in gefitinib-resistant cells,"ALPP [1]; GR HCC827 and PC9, 100 nM",majority of gefitinib-resistant cells expressed high level of ALPP
same,ALPP expression in gefitinib-resistant (GR) cells,"ALPP [1]; GR HCC827 and PC9, 100 nM, 48 hours",further enhanced ALPP upregulation
same,ALPP upregulation in ALPP non-expressing cell lines,"ALPP [1]; H1395, H1944, HCC2279, 1 μM, 48 hours",did not upregulate ALPP
same,ALPP mRNA levels,ALPP [1]; H1650 and HCC827,concomitant increases in ALPP mRNA levels
same,ALPP levels in ALPP-positive LUAD cell lines,"ALPP [1]; H2291, H1650, H1838, H1651, 1 μM, 48 hours",exhibited elevated ALPP levels
same,ALPP expression after drug washout and re-treatment,ALPP [1]; HCC827 and PC9,markedly reduced in the absence of EGFR inhibitors and was restored with the addition of inhibitors
same,ALPP and percentage of ALPP+ cells over time,ALPP [1]; HCC827 and PC9,gradual and sustained increase of ALPP and percentage of ALPP^+ cells
same,ALPP expression (immunoblots),"ALPP [1]; TNBC cell lines BT20 and HCC1937, 1 μM",increased ALPP expression
same,AKT and ERK phosphorylation,[5],repressed phosphorylation of AKT and ERK
same,FoxO3a cytosol/nucleus distribution,FoxO3a; H1650 and HCC827,reduced cytosolic FoxO3a and promoted its nuclear translocation
same,"phosphorylation of FoxO3a (Ser294, Ser425)","FoxO3a; H1650 and HCC827, 30 nM, 6 hours",repressed phosphorylation of FoxO3a at Ser294 and Ser425 residues
same,transcription of FOXO3A,FoxO3a; LUAD cells,not affected
same,FoxO3a binding to ALPP promoter (ChIP-qPCR),ALPP promoter,induced FoxO3a binding to ALPP promoter sequences
CS(=O)(=O)CCNCc1ccc(-c2ccc3ncnc(Nc4ccc(OCc5cccc(F)c5)c(Cl)c4)c3c2)o1 [lapatinib],ALPP induction by other EGFR inhibitors (immunoblots),ALPP [1],yielded similar results
C#Cc1cccc(Nc2ncnc3cc(OCCOC)c(OCCOC)cc23)c1 [erlotinib],ALPP mRNA expression in xenograft tumors,ALPP [7],increased ALPP mRNA expression in erlotinib-responding tumors compared with treatment naïve tumors
